Experimental data taken from PubChem BioAssay (NCI).
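GI50 marks 50% less growth. Definition used: TGI = concentration required for complete inhibition of growth.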

What was measured:
Experiment in all cases: NCI anticancer screen, dose series, 384-well format
MALME-3M melanoma = test system: MALME-3M melanoma
NCI/ADR-RES ovarian = test system: NCI/ADR-RES ovarian
COLO 205 colon = test system: COLO 205 colon
UACC-62 melanoma = test system: UACC-62 melanoma
SF-268 CNS = test system: SF-268 CNS
UO-31 renal = test system: UO-31 renal
RPMI-8226 leukemia = test system: RPMI-8226 leukemia
SR leukemia = test system: SR leukemia
CCRF-CEM leukemia = test system: CCRF-CEM leukemia
SF-539 CNS = test system: SF-539 CNS
NCI-H460 NSCLC = test system: NCI-H460 NSCLC
A549 NSCLC = test system: A549 NSCLC
786-0 renal = test system: 786-0 renal
U251 glioblastoma = test system: U251 glioblastoma
MDA-MB-435 melanoma = test system: MDA-MB-435 melanoma
NCI-H23 lung = test system: NCI-H23 lung
OVCAR-3 ovarian = test system: OVCAR-3 ovarian
SF-295 CNS = test system: SF-295 CNS
OVCAR-8 ovarian = test system: OVCAR-8 ovarian
SNB-19 CNS = test system: SNB-19 CNS
HL-60(TB) leukemia = test system: HL-60(TB) leukemia
BT-549 breast = test system: BT-549 breast
MDA-MB-468 breast = test system: MDA-MB-468 breast
LOX IMVI melanoma = test system: LOX IMVI melanoma
SK-MEL-5 melanoma = test system: SK-MEL-5 melanoma
SW-620 colon = test system: SW-620 colon
NCI-H522 lung = test system: NCI-H522 lung
UACC-257 melanoma = test system: UACC-257 melanoma
M14 melanoma = test system: M14 melanoma
HCT-15 colon = test system: HCT-15 colon
PC-3 prostate = test system: PC-3 prostate
HT29 colon = test system: HT29 colon
A498 renal = test system: A498 renal
SK-MEL-2 melanoma = test system: SK-MEL-2 melanoma
MOLT-4 leukemia = test system: MOLT-4 leukemia
SK-OV-3 ovarian = test system: SK-OV-3 ovarian
HOP-62 NSCLC = test system: HOP-62 NSCLC
MDA-MB-231 breast = test system: MDA-MB-231 breast
RXF 393 renal = test system: RXF 393 renal
SN12C renal = test system: SN12C renal
OVCAR-5 ovarian = test system: OVCAR-5 ovarian
T-47D breast = test system: T-47D breast
CAKI-1 renal = test system: CAKI-1 renal
NCI-H322M lung = test system: NCI-H322M lung
OVCAR-4 ovarian = test system: OVCAR-4 ovarian
K-562 leukemia = test system: K-562 leukemia
IGROV1 ovarian = test system: IGROV1 ovarian
DU-145 prostate = test system: DU-145 prostate
HCC-2998 colon = test system: HCC-2998 colon
TK-10 renal = test system: TK-10 renal
MCF7 breast = test system: MCF7 breast
KM12 colon = test system: KM12 colon
ACHN renal = test system: ACHN renal
SK-MEL-28 melanoma = test system: SK-MEL-28 melanoma
NCI-H226 lung = test system: NCI-H226 lung

For `CN(C)C/C=C/C(=O)Nc1ccc(C(=O)Nc2cccc(Nc3ncc(Cl)c(-c4c[nH]c5ccccc45)n3)c2)cc1`, the GI50 (MALME-3M melanoma) was 14.7 nM, the TGI (MALME-3M melanoma) was 29.9 nM and the GI50 (NCI/ADR-RES ovarian) was 525 nM. It also gave a TGI (NCI/ADR-RES ovarian) of 12200 nM, a GI50 (COLO 205 colon) of less than 10 nM and a TGI (COLO 205 colon) of 13.4 nM. It also gave a GI50 (UACC-62 melanoma) of less than 10 nM, a TGI (UACC-62 melanoma) of 18.7 nM and a GI50 (SF-268 CNS) of less than 10 nM. The TGI (SF-268 CNS) was 17.4 nM, the GI50 (UO-31 renal) was 105 nM and the TGI (UO-31 renal) was 372 nM. The GI50 (RPMI-8226 leukemia) was 13.7 nM, the TGI (RPMI-8226 leukemia) was 26.8 nM and the GI50 (SR leukemia) was less than 10 nM. It also gave a TGI (SR leukemia) of less than 10 nM, a GI50 (CCRF-CEM leukemia) of less than 10 nM and a TGI (CCRF-CEM leukemia) of less than 10 nM. The GI50 (SF-539 CNS) was less than 10 nM, the TGI (SF-539 CNS) was 19.5 nM and the GI50 (NCI-H460 NSCLC) was 17.3 nM. The TGI (NCI-H460 NSCLC) was 37.2 nM, the GI50 (A549 NSCLC) was 31.1 nM and the TGI (A549 NSCLC) was 110 nM. The GI50 ([…]-0 renal) was 23.9 nM, the TGI (786-0 renal) was 83.3 nM and the GI50 (U251 glioblastoma) was less than 10 nM. The TGI (U251 glioblastoma) was 27.4 nM, the GI50 (MDA-MB-435 melanoma) was 13.3 nM and the TGI (MDA-MB-435 melanoma) was 35.4 nM. The GI50 (NCI-H23 lung) was 10.6 nM, the TGI (NCI-H23 lung) was 25.4 nM and the GI50 (OVCAR-3 ovarian) was less than 10 nM. For the same compound, the TGI (OVCAR-3 ovarian) was 11 nM, the GI50 (SF-295 CNS) was 31.4 nM and the TGI (SF-295 CNS) was 99.4 nM. It also gave a GI50 (OVCAR-8 ovarian) of 16.5 nM, a TGI (OVCAR-8 ovarian) of 39.8 nM and a GI50 (SNB-19 CNS) of 20.1 nM. The TGI (SNB-19 CNS) was 174 nM, the GI50 (HL-60(TB) leukemia) was less than 10 nM and the TGI (HL-60(TB) leukemia) was less than 10 nM. The GI50 (BT-549 breast) was less than 10 nM, the TGI (BT-549 breast) was 13.7 nM and the GI50 (MDA-MB-468 breast) was less than 10 nM. The TGI (MDA-MB-468 breast) was 14.4 nM, the GI50 (LOX IMVI melanoma) was less than 10 nM and the TGI (LOX IMVI melanoma) was 28.2 nM. It also gave a GI50 (SK-MEL-5 melanoma) of less than 10 nM, a TGI (SK-MEL-5 melanoma) of 20.7 nM and a GI50 (SW-620 colon) of less than 10 nM. It also gave a TGI (SW-620 colon) of 42 nM, a GI50 (NCI-H522 lung) of less than 10 nM and a TGI (NCI-H522 lung) of less than 10 nM. It also gave a GI50 (UACC-257 melanoma) of less than 10 nM, a TGI (UACC-257 melanoma) of 21.3 nM and a GI50 (M14 melanoma) of 14.5 nM. The TGI (M14 melanoma) was 29.5 nM, the GI50 (HCT-15 colon) was 45.1 nM and the TGI (HCT-15 colon) was 213 nM. For the same compound, the GI50 (PC-3 prostate) was 20.6 nM, the TGI (PC-3 prostate) was 54.5 nM and the GI50 (HT29 colon) was 20 nM. It also gave a TGI (HT29 colon) of 47.5 nM, a GI50 (A498 renal) of 17.2 nM and a TGI (A498 renal) of 55.9 nM. For the same compound, the GI50 (SK-MEL-2 melanoma) was less than 10 nM, the TGI (SK-MEL-2 melanoma) was 13.3 nM and the GI50 (MOLT-4 leukemia) was less than 10 nM. For the same compound, the TGI (MOLT-4 leukemia) was 12.4 nM, the GI50 (SK-OV-3 ovarian) was 11.4 nM and the TGI (SK-OV-3 ovarian) was 45.9 nM. It also gave a GI50 (HOP-62 NSCLC) of 15.8 nM, a TGI (HOP-62 NSCLC) of 47.9 nM and a GI50 (MDA-MB-231 breast) of less than 10 nM. For the same compound, the TGI (MDA-MB-231 breast) was 44.8 nM, the GI50 (RXF 393 renal) was less than 10 nM and the TGI (RXF 393 renal) was less than 10 nM. It also gave a GI50 (SN12C renal) of 10.3 nM, a TGI (SN12C renal) of 29.4 nM and a GI50 (OVCAR-5 ovarian) of 21.4 nM. The TGI (OVCAR-5 ovarian) was 1200 nM, the GI50 (T-47D breast) was 14.2 nM and the TGI (T-47D breast) was 73.3 nM. For the same compound, the GI50 (CAKI-1 renal) was 14.2 nM, the TGI (CAKI-1 renal) was 46.9 nM and the GI50 (NCI-H322M lung) was 20.9 nM. The TGI (NCI-H322M lung) was 49.5 nM, the GI50 (OVCAR-4 ovarian) was less than 10 nM and the TGI (OVCAR-4 ovarian) was 25.4 nM. The GI50 (K-562 leukemia) was less than 10 nM, the TGI (K-562 leukemia) was 103 nM and the GI50 (IGROV1 ovarian) was 12.5 nM. The TGI (IGROV1 ovarian) was 51.9 nM, the GI50 (DU-145 prostate) was 16.2 nM and the TGI (DU-145 prostate) was 60.2 nM. For the same compound, the GI50 (HCC-2998 colon) was less than 10 nM, the TGI (HCC-2998 colon) was 20.6 nM and the GI50 (TK-10 renal) was 21.8 nM. The TGI (TK-10 renal) was 55.9 nM, the GI50 (MCF7 breast) was less than 10 nM and the TGI (MCF7 breast) was 166 nM. The GI50 (KM12 colon) was 17.7 nM, the TGI (KM12 colon) was 41.1 nM and the GI50 (ACHN renal) was 20.5 nM. It also gave a TGI (ACHN renal) of 83 nM, a GI50 (SK-MEL-28 melanoma) of less than 10 nM and a TGI (SK-MEL-28 melanoma) of 15.2 nM. The GI50 (NCI-H226 lung) was 12.4 nM and the TGI (NCI-H226 lung) was 33.6 nM.
